We go through 20 compounds from patent US6897214B2, “Quinazoline derivatives” (Zeneca Limited, priority 1996, dated 2005).

Molecules are shown by their SMILES.

T1 sequence (P00533 25-1210): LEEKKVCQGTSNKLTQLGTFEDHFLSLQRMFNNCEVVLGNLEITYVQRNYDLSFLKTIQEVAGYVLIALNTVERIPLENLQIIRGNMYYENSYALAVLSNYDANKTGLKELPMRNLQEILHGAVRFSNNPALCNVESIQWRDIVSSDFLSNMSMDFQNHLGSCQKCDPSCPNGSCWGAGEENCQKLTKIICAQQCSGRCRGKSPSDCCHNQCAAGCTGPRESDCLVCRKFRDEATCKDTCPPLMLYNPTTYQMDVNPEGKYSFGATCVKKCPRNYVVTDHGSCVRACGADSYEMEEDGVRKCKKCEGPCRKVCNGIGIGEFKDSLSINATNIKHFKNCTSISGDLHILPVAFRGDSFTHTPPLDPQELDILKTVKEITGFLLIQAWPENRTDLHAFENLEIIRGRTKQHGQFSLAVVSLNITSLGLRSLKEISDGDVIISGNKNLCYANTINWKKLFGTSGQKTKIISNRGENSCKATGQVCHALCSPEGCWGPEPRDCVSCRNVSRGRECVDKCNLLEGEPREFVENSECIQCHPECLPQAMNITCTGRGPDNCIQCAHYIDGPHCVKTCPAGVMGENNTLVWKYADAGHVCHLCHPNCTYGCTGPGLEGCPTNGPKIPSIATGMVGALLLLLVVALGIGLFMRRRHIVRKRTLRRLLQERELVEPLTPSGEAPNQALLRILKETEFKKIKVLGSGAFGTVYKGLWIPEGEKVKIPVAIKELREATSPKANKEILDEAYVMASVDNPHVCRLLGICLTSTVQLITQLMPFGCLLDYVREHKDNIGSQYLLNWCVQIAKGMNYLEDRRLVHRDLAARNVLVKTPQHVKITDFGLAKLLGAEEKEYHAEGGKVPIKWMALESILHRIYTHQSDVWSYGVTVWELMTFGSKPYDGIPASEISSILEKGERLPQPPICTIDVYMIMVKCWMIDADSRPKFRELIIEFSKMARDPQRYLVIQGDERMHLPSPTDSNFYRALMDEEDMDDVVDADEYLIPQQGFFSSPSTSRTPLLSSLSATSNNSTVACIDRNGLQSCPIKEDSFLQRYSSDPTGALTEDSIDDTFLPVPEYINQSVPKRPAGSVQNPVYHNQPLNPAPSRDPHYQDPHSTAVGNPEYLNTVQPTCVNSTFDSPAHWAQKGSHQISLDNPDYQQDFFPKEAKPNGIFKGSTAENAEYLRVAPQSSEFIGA

System in one series: not given
Assay: not given
Conditions: not given
`Cc1cccc(Nc2ncnc3ccc(NCc4ccsc4)cc23)c1` [Example 16, 4-(3-methylanilino)-6-(3-thienylmethylamino)quinazoline] showed a melting point of 207 to 208 °C.

Turning to `CNc1cc2ncnc(Nc3ccc(F)c(Cl)c3)c2cc1NC(=O)c1cccnc1` [Example 24, 4-(3-chloro-4-fluoroanilino)-7-methylamino-6-(pyridine-3-carboxamido)quinazoline], the melting point was above 260 °C.

Take `Cc1cccc(Nc2ncnc3ccc(CSc4nccn4C)cc23)c1` [Example 35, 4-(3-methylanilino)-6-(N-methylimidazol-2-ylthiomethyl)quinazoline]: the melting point is 137 to 139 °C. Same read-out and setting: the value for `Cc1cccc(Nc2ncnc3ccc(CSc4nc5ccccc5[nH]4)cc23)c1` [Example 37, 6-(2-benzimidazolylthiomethyl)-4-(3-methylanilino)quinazoline] was 123 to 129 °C. `Cl.O=C(Nc1ccc2ncnc(Nc3ccc(F)c(Cl)c3)c2c1)c1cccs1` displayed a melting point above 250 °C. `Cc1cc(Nc2ncnc3ccc(-c4ccoc4)cc23)ccc1OCc1ccccn1` [Example 39, 6-(3-furyl)-4-[3-methyl-4-(2-pyridylmethoxy)anilino]-quinazoline] displayed a melting point of 206 to 208 °C. On the same count and under the same terms, then `Fc1ccc(Nc2ncnc3ccc(NCc4cccs4)cc23)cc1Cl` [Example 19, 4-(3-chloro-4-fluoroanilino)-6-(2-thienylmethylamino)quinazoline], with 193 to 195 °C; and `Cc1cccc(Nc2ncnc3ccc(-c4ccccc4)cc23)c1` [Example 2, 4-(3-methylanilino)-6-phenylquinazoline], with 207 to 209 °C; and `Cc1cc(Nc2ncnc3ccc(-c4cccs4)cc23)ccc1OCc1ccccn1` [Example 38, 4-[3-methyl-4-(2-pyridylmethoxy)anilino]-6-(2-thienyl)-quinazoline], with 205 to 206 °C.

In the case of `Fc1ccc(Nc2ncnc3ccc(-c4cccs4)cc23)cc1Cl` [Example 6, 4-(3-chloro-4-fluoroanilino)-6-(2-thienyl)quinazoline], the melting point lay within 205 to 208 °C. Still for that read-out and setting: then `Cc1cccc(Nc2ncnc3ccc(CSc4c[nH]nn4)cc23)c1` [Example 34, 4-(3-methylanilino)-6-(1,2,3-triazol-4-ylthiomethyl)quinazoline], with 64 to 68 °C; and `Cl.O=C(Nc1ccc2ncnc(Nc3ccc(F)c(Cl)c3)c2c1)c1ccno1`, with above 250 °C. Consider `Cc1cccc(Nc2ncnc3ccc(Nc4ncc[nH]4)cc23)c1` [Example 14, 6-(2-imidazolylamino)-4-(3-methylanilino)quinazoline], for which the melting point is 256 to 258 °C. Same read-out and setting: the value for `N#Cc1ccc(-c2ccc3ncnc(Nc4ccc(F)c(Cl)c4)c3c2)cc1` [Example 1, 4-(3-chloro-4-fluoroanilino)-6-(4-cyanophenyl)quinazoline] was above 250 °C; that for `Cc1cccc(Nc2ncnc3ccc(NS(=O)(=O)c4cn(C)cn4)cc23)c1` [Example 15, 4-(3-methylanilino)-6-(1-methylimidazole-4-sulphonamido)quinazoline] was above 250 °C; that for `Fc1ccc(Nc2ncnc3ccc(-c4ccsc4)cc23)cc1Cl` [Example 7, 4-(3-chloro-4-fluoroanilino)-6-(3-thienyl)quinazoline] was 195 to 197 °C.

For `Cc1cccc(Nc2ncnc3ccc(CSc4ncc[nH]4)cc23)c1` [Example 36, 6-(2-imidazolylthiomethyl)-4-(3-methylanilino)-quinazoline], the melting point was in the range of 217 to 219 °C. Same read-out and setting: the value for `Fc1ccc(Nc2ncnc3ccc(-c4ccco4)cc23)cc1Cl` [Example 5, 4(3-chloro-4-fluoroanilino)-6-(2-furyl)quinazoline] was 232 to 234 °C.

The next series concerns human naso-pharyngeal cancer cell line KB. Nature of the series: Test (b): in vitro inhibition of EGF-stimulated growth of KB cells. The class given is cell-based. The settings on record: EGF (10 ng/ml) stimulated growth, MTT. The method, then:
(b) An in vitro assay which determines the ability of a test compound to inhibit the EGF-stimulated growth of the human naso-pharyngeal cancer cell line KB.
KB cells were seeded into wells at a density of 1×10^4-1.5×10^4 cells per well and grown for 24 hours in DMEM supplemented with 5% FCS (charcoal-stripped). Cell growth was determined after. incubation for 3 days by the extent of metabolism of MTT tetrazolium dye to furnish a bluish colour. Cell growth was then determined in the presence of EGF (10 ng/ml) or in the presence of EGF (10 ng/ml) and a test compound at a range of concentrations. An IC50 value could then be calculated.
Take `Fc1ccc(Nc2ncnc3ccc(-c4ccc(CCN5CCOCC5)s4)cc23)cc1Cl` [Example 8, 4-(3-chloro-4-fluoroanilino)-6-[5-(2-morpholinoethyl)thien-2-yl]quinazoline]: the IC50 amounted to 190 nM.

For a further series, the system named is transplanted human mammary carcinoma.
Assay: not given
The settings on record: carcinoma which does not express EGF receptor tyrosine kinase; cited from earlier work.
Take `O=CN/C=C/c1cc(O)ccc1O` [erbstatin]: the “growth of another carcinoma” value is given as “without effect on the growth”.

Still in this series, the particulars now being: carcinoma which expresses EGF receptor tyrosine kinase; athymic nude mice; cited from earlier work.
In the case of `O=CN/C=C/c1cc(O)ccc1O` [erbstatin], the “growth of transplanted human mammary carcinoma” value is reported as “specifically attenuates the growth”.

A further series has as its system xenografts of the human vulval epidermoid carcinoma cell line A-431. In words: Test (d): in vivo inhibition of growth of A-431 xenografts in athymic nude mice. As to conditions: dosage of 50 mg/kg/day. The method, then:
(d) An in-vivo assay in a group of athymic nude mice (strain ONU:Alpk) which determines the ability of a test compound (usually administered orally as a ball-milled suspension in 0.5% polysorbate) to inhibit the growth of xenografts of the human vulval epidermoid carcinoma cell line A-431.
A-431 cells were maintained in culture in DMEM supplemented with 5% FCS and 2 mM glutamine. Freshly cultured cells were harvested by trypsinization and injected subcutaneously (10 million cells/0.1 ml/mouse) into both flanks of a number of donor nude mice. When sufficient tumour material was available (after approximately 9 to 14 days), fragments of tumour tissue were transplanted into the flanks of recipient nude mice (test day 0). Generally, on the seventh day after transplantation (test day 7) groups of 7 to 10 mice with similar-sized tumours were selected and dosing of the test compound was commenced. Once-daily dosing of test compound was continued for a total of 13 days (test days 7 to 19 inclusive). In some studies the dosing of the test compound was continued beyond test day 19, for example to test day 26. In each case, on the following day the animals were killed and final tumour volume was calculated from measurements of the length and width of the tumours. Results were calculated as a percentage inhibition of tumour volume relative to untreated controls.
Turning to `Fc1ccc(Nc2ncnc3ccc(-c4ccc(CCN5CCOCC5)s4)cc23)cc1Cl` [Example 8, 4-(3-chloro-4-fluoroanilino)-6-[5-(2-morpholinoethyl)thien-2-yl]quinazoline], the “inhibition in Test (d) (tumour volume relative to untreated controls)” value amounted to 64%.

A further series has as its target T1, EGF receptor tyrosine kinase (Homo sapiens, UniProt P00533).
T1 construct: Receptor tyrosine kinase was obtained in partially purified form from A-431 cells; endogenous in cells; host or cells: A-431 cells (human vulval carcinoma), solubilised membrane preparation
Nature of the series: Test (a): in vitro inhibition of the enzyme EGF receptor tyrosine kinase. The class given is biochemical. The settings on record: enzyme partially purified from A-431 cells. The method, then: (a) An in vitro assay which determines the ability of a test compound to inhibit the enzyme EGF receptor tyrosine kinase. Receptor tyrosine kinase was obtained in partially purified form from A-431 cells (derived from human vulval carcinoma) by the procedures described below which are related to those described by Carpenter et al, J. Biol. Chem., 1979, 254, 4884, Cohen et al., J. Biol. Chem., 1982, 257, 1523 and by Braun et al., J. Biol Chem., 1984, 259, 2051.
A-431 cells were grown to confluence using Dulbecco's modified Eagle's medium DMEM) containing 5% fetal calf serum (FCS). The obtained cells were homogenised in a hypotonic borate/EDTA buffer at pH 10.1. The homogenate was centrifuged at 400 g for 10 minutes at 0-4° C. The supernatant was centrifuged at 25,000 g for 30 minutes at 0-4° C. […]
The test compound/EGF mixture solution (5 μl) was added to the test enzyme solution (10 μl) and the mixture was incubated at 0-4° C. for 30 minutes. […] Radioactivity present in the filter paper was measured using a liquid scintillation counter (Sequence A). […]
Receptor tyrosine kinase inhibition was calculated as follows: [formula]
The extent of inhibition was then determined at a range of concentrations of test compound to give an IC50 value.
For `Fc1ccc(Nc2ncnc3ccc(-c4ccc(CCN5CCOCC5)s4)cc23)cc1Cl` [Example 8, 4-(3-chloro-4-fluoroanilino)-6-[5-(2-morpholinoethyl)thien-2-yl]quinazoline], 40 nM corresponded to half-maximal inhibition (IC50).

One may read the melting point as the temperature, or range, at which the solid turns liquid. As a reminder, the IC50 is the concentration needed to halve the response being measured.
